In patent US6346536B1, “Poly(ADP-ribose) polymerase inhibitors and method for treating neural or cardiovascular tissue damage using the same” (Guilford Pharmaceuticals Inc., priority 1997, dated 2002):
Like-named read-outs stand apart in the source and are kept apart here. One block for each molecule: values may come before it.

Legend:
[1] = system: ischemia and reperfusion of the heart; details: rabbits, cited from earlier work
[2] = system: cell viability, glucose metabolism, and DNA synthesis; details: Milam et al., Science 1984; cited from earlier work
[3] = biological target: T1, purified recombinant human PARP (Homo sapiens, UniProt P09874); experiment: PARP enzyme assay using purified recombinant human PARP, [3H]NAD incorporation; format: biochemical; details: 25° C., 15 minutes, 3.0 micromolar [3H]NAD, read-out: Approximate IC50's
T1 construct: purchased Trevigen (Gaithersburg, Md.)
Experimental: The reaction is initiated by incubating the mixture at 25° C. After 15 minutes' incubation, the reaction is terminated by adding 500 microliters of ice cold 20% (w/v) trichloroacetic acid. The precipitate formed is transferred onto a glass fiber filter (Packard Unifilter-GF/B) and washed three times with ethanol. After the filter is dried, the radioactivity is determined by scintillation counting.

PARP = details: read-out: IC50 for inhibiting PARP; reported by Suto et al.; cited from earlier work

T1 sequence (P09874 whole entry): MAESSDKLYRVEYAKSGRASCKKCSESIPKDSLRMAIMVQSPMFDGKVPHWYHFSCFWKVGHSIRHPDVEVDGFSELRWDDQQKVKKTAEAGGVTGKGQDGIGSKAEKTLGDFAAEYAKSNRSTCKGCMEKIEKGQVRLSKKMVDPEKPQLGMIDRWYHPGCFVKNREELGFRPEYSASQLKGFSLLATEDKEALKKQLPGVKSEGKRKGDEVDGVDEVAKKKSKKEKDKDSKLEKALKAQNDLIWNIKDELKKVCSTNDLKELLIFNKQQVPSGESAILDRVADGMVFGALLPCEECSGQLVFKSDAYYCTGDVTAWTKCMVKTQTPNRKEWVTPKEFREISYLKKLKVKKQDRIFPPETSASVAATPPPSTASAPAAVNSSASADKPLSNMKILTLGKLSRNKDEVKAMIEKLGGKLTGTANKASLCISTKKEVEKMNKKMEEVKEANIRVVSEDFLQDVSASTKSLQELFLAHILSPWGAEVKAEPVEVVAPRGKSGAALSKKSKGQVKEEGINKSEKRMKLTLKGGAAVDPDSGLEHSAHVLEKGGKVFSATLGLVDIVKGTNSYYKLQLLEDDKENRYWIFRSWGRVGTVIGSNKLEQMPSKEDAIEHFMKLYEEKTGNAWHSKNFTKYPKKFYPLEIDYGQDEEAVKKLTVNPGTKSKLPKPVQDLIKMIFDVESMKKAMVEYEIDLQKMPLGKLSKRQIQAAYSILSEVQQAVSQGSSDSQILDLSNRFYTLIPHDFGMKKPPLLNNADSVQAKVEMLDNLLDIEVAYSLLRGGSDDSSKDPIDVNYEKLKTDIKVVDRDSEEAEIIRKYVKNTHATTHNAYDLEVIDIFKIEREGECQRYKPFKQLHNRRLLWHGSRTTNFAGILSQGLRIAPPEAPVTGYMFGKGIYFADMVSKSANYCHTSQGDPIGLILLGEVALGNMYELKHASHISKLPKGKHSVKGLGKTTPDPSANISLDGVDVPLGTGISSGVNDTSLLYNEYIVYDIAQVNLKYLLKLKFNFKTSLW

Compound: NC(=O)c1cccc(N)c1 [3-aminobenzamide]
reduction in infarct size in the heart ([1]; single injection 10 mg/kg, one minute before occlusion or one minute before reperfusion): 32-42% | side effects on other metabolic processes [2]: affect cell viability, glucose metabolism, and DNA synthesis

Compound: O=c1[nH]c(-c2ccccc2)cc2ccccc12
IC50 ([3]; unit μm [sic]): 30 µM

Compound: Oc1cccc2c(O)nccc12 [1,5-dihydroxyisoquinoline]
reduction in infarct size ([1]; single injection 1 mg/kg): 38-48%

Compound: NC(=O)c1ccccc1 [benzamide]
side effects on other metabolic processes [2]: affect cell viability, glucose metabolism, and DNA synthesis

Compound: O=C1NCCc2c(OCCCCN3CCCCC3)cccc21 [3,4-dihydro-5-[4-(1-piperidinyl)butoxy]1(2H)-isoquinolinone]
IC50 (PARP): 0.04 µM

Results, then the molecule that gave them:

IC50 [3]: 10 µM
Compound: O=c1[nH]ccc2c([N+](=O)[O-])cccc12

IC50 [3]: 5 µM
Compound: O=c1[nH]cc([N+](=O)[O-])c2ccccc12

IC50 [3]: 0.8 µM
Compound: COC(=O)c1c[nH]c(=O)c2ccccc12

IC50 [3]: 10 µM
Compound: O=C(O)c1c[nH]c(=O)c2ccccc12
